Relative viability data for one cell line are collected here from the supplement of paper PMC10307832.

Holding throughout (assay): relative viability (nuclei count vs DMSO), 5 days (fraction); higher = more cells survive
Compound in assay [1]: C1=CC=C2C(=C1)N=C(S2)C(C#N)C3=NC(=NC=C3)NCCC4=CN=CC=C4 + Cc1nc(NC(=O)N2CCC[C@H]2C(N)=O)sc1-c1ccnc(C(C)(C)C(F)(F)F)c1 [Alpelisib] (partner 2 µM)
An outline of the steps: (§1)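 For relative viability, nuclei counts in treated wells were divided by those in vehicle wells. Lung cancer cell lines had been pin-tool dosed in 1536-well plates the day after seeding and cultured for 5 days, then fixed and stained in one step (final 0.05% Triton X-100, 1% formaldehyde, 1 ug/ml Hoechst) and imaged at 4×. Doses were one drug alone or a fixed anchor-drug dose plus five library-drug doses (not always all listed) in √10 steps, and values are duplicate-plate medians.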

Compound in the assay “NVP-TAE684 + Crizotinib”: COc1cc(N2CCC(N3CCN(C)CC3)CC2)ccc1Nc1ncc(Cl)c(Nc2ccccc2S(=O)(=O)C(C)C)n1 [NVP-TAE684] + C[C@@H](Oc1cc(-c2cnn(C3CCNCC3)c2)cnc1N)c1c(Cl)ccc(F)c1Cl [Crizotinib] (partner 1 µM)
In short, it runs like this:
as §1

Compound in the assay “NVP-TAE684 + Linsitinib”: COc1cc(N2CCC(N3CCN(C)CC3)CC2)ccc1Nc1ncc(Cl)c(Nc2ccccc2S(=O)(=O)C(C)C)n1 [NVP-TAE684] + C[C@]1(O)C[C@@H](c2nc(-c3ccc4ccc(-c5ccccc5)nc4c3)c3c(N)nccn32)C1 [Linsitinib] (partner 1 µM)
In short, it runs like this:
as §1

Compound in the assay “NVP-TAE684 + Dasatinib”: COc1cc(N2CCC(N3CCN(C)CC3)CC2)ccc1Nc1ncc(Cl)c(Nc2ccccc2S(=O)(=O)C(C)C)n1 [NVP-TAE684] + Cc1nc(Nc2ncc(C(=O)Nc3c(C)cccc3Cl)s2)cc(N2CCN(CCO)CC2)n1 [Dasatinib] (partner 0.075 µM)
An outline of the steps: as §1

Compound in the assay “NVP-TAE684 + Olaparib”: COc1cc(N2CCC(N3CCN(C)CC3)CC2)ccc1Nc1ncc(Cl)c(Nc2ccccc2S(=O)(=O)C(C)C)n1 [NVP-TAE684] + O=C(c1cc(Cc2n[nH]c(=O)c3ccccc23)ccc1F)N1CCN(C(=O)C2CC2)CC1 [Olaparib] (partner 8 µM)
An outline of the steps: as §1

Consider UMC-11, for which the relative viability is 0.644 in assay [1] (first compound 0.005 µM); 1.12 in assay [1] (first compound 0.01581 µM); 0.924 in assay [1] (first compound 0.05 µM); 1.11 in assay [1] (first compound 0.1581 µM); 0.78 in assay [1] (first compound 0.5 µM); 0.45 with NVP-TAE684 + Crizotinib (first compound 0.2 µM). Also, the relative viability with NVP-TAE684 + Crizotinib (first compound 0.6325 µM) was 0.459; with NVP-TAE684 + Crizotinib (first compound 2 µM), 0.145; with NVP-TAE684 + Linsitinib (first compound 0.2 µM), 1.14; with NVP-TAE684 + Linsitinib (first compound 0.6325 µM), 0.904; in the assay with NVP-TAE684 + Linsitinib (first compound 2 µM) it was 0.282; in the assay with NVP-TAE684 + Dasatinib (first compound 0.2 µM) it was 0.577. Moreover, the relative viability with NVP-TAE684 + Dasatinib (first compound 0.6325 µM) is 0.415; with NVP-TAE684 + Dasatinib (first compound 2 µM) it was 0.284; with NVP-TAE684 + Olaparib (first compound 0.2 µM), 0.376; with NVP-TAE684 + Olaparib (first compound 0.6325 µM), 0.336; in the assay with NVP-TAE684 + Olaparib (first compound 2 µM) it was 0.228.
